# System: 186277-243-T-J2-PDC multi-cell spheroid viability
# Assay: Anticancer human tumor 186277-243-T-J2-PDC patient-derived colon adenocarcinoma cell line growth inhibition [PI3K]
# Conditions: for IC50: curve of first compound; for viability, T/C: stronger effect = lower value
# Excerpt: Combinatorial screen of targeted agents with the PI3K inhibitors inavolisib, alpelisib, duvelisib, and copanlisib in multi-cell type tumor spheroids
# A high-throughput screen of multi-cell type tumor spheroids was designed to identify active combinations of targeted small molecules and PI3K pathway inhibitors. Complex spheroids include a stromal component modeled by human endothelial cells (HUVEC) and fibroblasts modeled by human mesenchymal stem cells (MSCs). The concentration ranges selected for each drug and investigational agent were based upon clinically achievable concentrations if the clinical Cmax of the agent was known.
# Compounds. The drugs and investigational agents: inavolisib (NSC800729), alpelisib (NSC765974), duvelisib (NSC772469), copanlisib (NSC816437), ipatasertib (NSC767898), afuresertib (NSC778305), talazoparib (NSC767125), sapanisertib (NSC764658), selumetinib (NSC741078), tovorafenib (DAY101, NSC766906), vemurafenib (NSC761431), ravoxertinib (NSC781343), sotorasib (NSC818433), MRTX1133 (NSC 836407), abemaciclib (NSC 768073), palbociclib (NSC758247), venetoclax (NSC 766270), SY5609 (NSC837396), enzalutamide (NSC755605), and darolutamide (NSC825331), were obtained from the National Cancer Institute (NCI) Developmental Therapeutics Program Chemical Repository. The FDA-approved anticancer drug set is available from the NCI Developmental Therapeutics Program. […] The stock solutions were prepared in dimethyl sulfoxide (DMSO, Sigma-Aldrich, St. Louis, MO, cat. D2650) at 800-fold the tested concentration and stored at -70 degrees C prior to their use. All drugs and investigational agents were tested over a range starting from a high concentration at or near the clinical Cmax and decreasing in half-log increments. If the clinical Cmax for an agent had not been determined, the highest concentration tested was 10 microM.
# Cell Culture. All cells were maintained in an incubator at 37 degrees C and 5% CO2 with 95% humidity. The PDC lines were cultured according to standard operating procedures established by the NCI PDMR (https://pdmr.cancer.gov/sops/default.htm). All PDCs were thawed and cultured in Matrigel-coated flasks prepared with a working solution of 1X Ham's F-12 nutrient mix, without supplementation (Invitrogen, Waltham, MA, cat. 11765054), 100 U/mL penicillin-streptomycin (Invitrogen, cat. 15140122), and 2.5% Matrigel (Corning Inc., Corning, NY, cat. 354248) for the first three passages. The 354836-022-R-J1-PDC, 475296-252-R-J1-PDC, and 997726-040-R-J2-PDC lines were cultured in 6A media, which includes advanced DMEM/F-12 (Thermo Fisher Scientific, cat. 12634028), 10 mM HEPES (Thermo Fisher Scientific, cat. 15630080), 1X GlutaMAX supplement (Thermo Fisher Scientific, cat. 35050061), 0.1 mg/mL primocin (InvivoGen, San Diego, CA, cat. ant-pm-2), 10% defined fetal bovine serum, heat inactivated (HyClone Laboratories Inc., Logan, UT, cat. SH30070.03HI), 50% L-WRN conditioned media (ATCC, cat. CRL-3276), 1.25 mM N-Acetyl-L-cysteine (Sigma-Aldrich, cat. A9165), 10 mM nicotinamide (Sigma-Aldrich, cat. N0636), 1X B-27 supplement (Thermo Fisher Scientific, cat. 17504044), 1X N-2 supplement (Thermo Fisher Scientific, cat. 17502048), and 10 microM Y-27632 dihydrochloride (Tocris Bioscience, Bristol, United Kingdom, cat. 1254). The 624824-186-R-J2-PDC line was cultured in 6C/Colon 1B media, which includes all 6A media components plus 50 ng/mL human EGF recombinant protein (Thermo Fisher Scientific, cat. PHG0311). […]
# 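Note: spheroids exposed to compounds for seven days before viability reading.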
# 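Throughout, for viability, T/C: 100% = DMSO vehicle control viability.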
smiles,measurement,setting,value
Cn1cnc2c(F)c(Nc3ccc(Br)cc3Cl)c(C(=O)NOCCO)cc21 + Cc1nc(NC(=O)N2CCCC2C(N)=O)sc1-c1ccnc(C(C)(C)C(F)(F)F)c1,IC50,second compound 0.0316 µM,0.117 µM
same,IC50,second compound 0.1 µM,0.0667 µM
same,IC50,second compound 0.316 µM,0.0341 µM
same,IC50,second compound 1 µM,< 0.00949 µM
same,IC50,second compound 3.16 µM,< 0.00949 µM
same,IC50,second compound 10 µM,< 0.00949 µM
same,"viability, T/C","second compound 0.0316 µM, first compound 0.00949 µM",107%
same,"viability, T/C","second compound 0.0316 µM, first compound 0.03 µM",80.3%
same,"viability, T/C","second compound 0.0316 µM, first compound 0.0949 µM",52.4%
same,"viability, T/C","second compound 0.0316 µM, first compound 0.3 µM",34.5%
same,"viability, T/C","second compound 0.0316 µM, first compound 0.949 µM",16.1%
same,"viability, T/C","second compound 0.0316 µM, first compound 3 µM",6.83%
same,"viability, T/C","second compound 0.1 µM, first compound 0.00949 µM",100%
same,"viability, T/C","second compound 0.1 µM, first compound 0.03 µM",67.8%
same,"viability, T/C","second compound 0.1 µM, first compound 0.0949 µM",42.1%
same,"viability, T/C","second compound 0.1 µM, first compound 0.3 µM",25.4%
same,"viability, T/C","second compound 0.1 µM, first compound 0.949 µM",13%
same,"viability, T/C","second compound 0.1 µM, first compound 3 µM",9.02%
same,"viability, T/C","second compound 0.316 µM, first compound 0.00949 µM",76.8%
same,"viability, T/C","second compound 0.316 µM, first compound 0.03 µM",53.5%
same,"viability, T/C","second compound 0.316 µM, first compound 0.0949 µM",28.9%
same,"viability, T/C","second compound 0.316 µM, first compound 0.3 µM",18.5%
same,"viability, T/C","second compound 0.316 µM, first compound 0.949 µM",8.47%
same,"viability, T/C","second compound 0.316 µM, first compound 3 µM",3.53%
same,"viability, T/C","second compound 1 µM, first compound 0.00949 µM",48.1%
same,"viability, T/C","second compound 1 µM, first compound 0.03 µM",28.6%
same,"viability, T/C","second compound 1 µM, first compound 0.0949 µM",16.6%
same,"viability, T/C","second compound 1 µM, first compound 0.3 µM",5.87%
same,"viability, T/C","second compound 1 µM, first compound 0.949 µM",4.04%
same,"viability, T/C","second compound 1 µM, first compound 3 µM",1.48%
same,"viability, T/C","second compound 3.16 µM, first compound 0.00949 µM",23%
same,"viability, T/C","second compound 3.16 µM, first compound 0.03 µM",10.6%
same,"viability, T/C","second compound 3.16 µM, first compound 0.0949 µM",5.72%
same,"viability, T/C","second compound 3.16 µM, first compound 0.3 µM",3.73%
same,"viability, T/C","second compound 3.16 µM, first compound 0.949 µM",2.72%
same,"viability, T/C","second compound 3.16 µM, first compound 3 µM",0.62%
same,"viability, T/C","second compound 10 µM, first compound 0.00949 µM",3.43%
same,"viability, T/C","second compound 10 µM, first compound 0.03 µM",3.24%
same,"viability, T/C","second compound 10 µM, first compound 0.0949 µM",1.7%
same,"viability, T/C","second compound 10 µM, first compound 0.3 µM",2.06%
same,"viability, T/C","second compound 10 µM, first compound 0.949 µM",1.21%
same,"viability, T/C","second compound 10 µM, first compound 3 µM",0.89%

# Reference: PubChem BioAssay AID1963983 (Molecular Pharmacology Branch, DTP, NCI, 2024)
